Measured values taken from patent US20250122225A1, “MASP-2 INHIBITORS AND METHODS OF USE” (Omeros Corporation, priority 2023, published 2025).
Where a name gives a salt, the structure may show the parent alone.

Key:
MASP-2 (CCP1-CCP2-SP) = biological target: T1, MASP-2 (CCP1-CCP2-SP) (Homo sapiens, UniProt O00187); experiment: Enzymatic assay for MASP-2 inhibitory activity (fluorogenic substrate); format: biochemical
T1 construct: 15 μL of Enzyme MASP-2 (CCP1-CCP2-SP) in Assay Buffer
Protocol: The MASP-2 assay utilizes a fluorogenic substrate, based on the cleavage site for its natural substrate C2. The assay was run at room temperature in an assay buffer containing 20 mM HEPES, pH 7.4, 140 mM NaCl and 0.1% Tween 20. Assay parameters were adjusted such that the assay was linear with respect to time, enzyme, and substrate concentrations. Under the optimized assays conditions, IC50 values were equivalent to Ki values, except in the few cases of “tight binding” inhibitors. Cases of “tight binding” or possible “slow binding” inhibitors were handled by the methods described in Copeland R. A. (2013) Evaluation of Enzyme Inhibitors in Drug Discovery. 2nd Ed., John Wiley and Sons, Inc., Chapters 5-7.
The MASP-2 assay protocol was carried out as follows. Test compounds were serially diluted in DMSO and then 100 nL of each dilution was transferred to the assay plate(s). 10 μL of Assay Buffer was added, followed by 15 μL of Enzyme MASP-2 (CCP1-CCP2-SP) in Assay Buffer. 15 μL of Substrate in Assay Buffer was then added and the mixture was mixed to start the reaction. After 20 min at room temperature, 15 μL of a stop solution (0.1 M acetic acid) was added, the sample was mixed, and the plates were read on a SpectraMax i3x Microplate Reader with the data exported as an Excel file. Each assay plate included a “no inhibitor” (DMSO only) control, a “no enzyme” control, and a reference inhibitor control. % Activity values=100*(average test comp. fluorescence−average “no enzyme” fluorescence)/(average “DMSO only” fluorescence−average “no enzyme” fluorescence). IC50 and Ki replicate values were very reproducible, with values well within ±2-fold.

human α-thrombin = biological target: T2, human α-thrombin (Homo sapiens, UniProt P00734); experiment: Enzymatic assay for thrombin (fluorogenic peptide substrate Boc-VPR-AMC); format: biochemical
T2 construct: enzyme (human α-thrombin (BioPharm® Lab.)) in assay buffer; purchased BioPharm® Lab
Protocol: The thrombin assay utilizes a fluorogenic peptide substrate (Boc-VPR-AMC (R&D Systems) and was run at room temperature in an assay buffer containing 20 mM Hepes, pH 7.4, 140 mM NaCl and 0.1% Tween 20. Assay parameters were adjusted such that the assay was linear with respect to time, enzyme, and substrate concentrations. Under these optimized assays conditions, IC50 values were equivalent to Ki values, except in a few cases of “tight binding” inhibitors. Cases of “tight binding” or possible “slow binding” inhibitors were handled by the methods described in Copeland R. A. (2013) Evaluation of Enzyme Inhibitors in Drug Discovery. 2nd Ed. John Wiley and Sons, Inc., Chapters 5-7.
The thrombin assay protocol was carried out as follows. Test compounds were serially diluted in DMSO and then 100 nL of each dilution was transferred to the assay plate(s). 10 μL of Assay Buffer was added, followed by 15 μL of enzyme (human α-thrombin (BioPharm® Lab.)) in assay buffer. 15 μL of substrate in assay buffer was then added and the sample mixed to start the reaction. After 20 min at room temperature, 15 μL of a stop solution (0.1 M acetic acid) was added, the sample was mixed, and the plates were read on a SpectraMax® i3x Microplate Reader with the data exported as Excel files. Each assay plate included a “no inhibitor” (DMSO only) control, a “no enzyme” control, and a reference inhibitor control. % Activity values=100*(ave. test comp. fluorescence−ave. “no enz” fluorescence)/(ave. “DMSO only” fluorescence−ave. “no enz” fluorescence). IC50 and Ki values were very reproducible, with values falling well within ±2-fold.

T1 sequence (O00187 445-686 limits assumed): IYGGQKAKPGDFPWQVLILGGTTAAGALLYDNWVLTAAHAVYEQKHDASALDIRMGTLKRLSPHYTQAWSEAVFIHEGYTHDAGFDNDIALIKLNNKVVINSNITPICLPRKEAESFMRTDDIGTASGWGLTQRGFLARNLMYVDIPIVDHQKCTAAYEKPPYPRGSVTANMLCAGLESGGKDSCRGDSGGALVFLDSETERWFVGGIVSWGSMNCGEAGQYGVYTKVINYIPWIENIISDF
T1 sequence (O00187 287-444 partner limits assumed): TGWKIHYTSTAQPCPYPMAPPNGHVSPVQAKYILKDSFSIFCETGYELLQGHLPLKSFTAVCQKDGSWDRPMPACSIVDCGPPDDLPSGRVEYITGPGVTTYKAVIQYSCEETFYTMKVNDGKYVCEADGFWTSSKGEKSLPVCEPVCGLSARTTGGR

Row | Structure (SMILES) | Ki (MASP-2 (CCP1-CCP2-SP)) [nM] | Ki (human α-thrombin) [nM]
1 | Cc1ccccc1CNc1ncc2n(c1=O)[C@H](C(=O)NCc1cc3c(s1)CNC3)CC2 [Compound 286, trifluoroacetate] | < 500 | 500 to 2500
2 | O=C(NCc1cc2cnccc2[nH]1)[C@@H]1CCc2c(Cl)nc(NCC3CCCCC3)c(=O)n21 [Compound 112, (S)-N-((1H-pyrrolo[3,2-c]pyridin-2-yl)methyl)-1-chloro-3-((cyclohexylmethyl)amino)-4-oxo-4,6,7,8-tetrahydropyrrolo[1,2-alpyrazine-6-carboxamide trifluoroacetate] | < 500 | > 25000
3 | Cc1cc(F)cc(CNc2nc(C#N)c3n(c2=O)[C@H](C(=O)NCc2ccc(N)nc2C)CC3)c1 [Compound 222, (S)—N-((6-amino-2-methylpyridin-3-yl)methyl)-1-cyano-3-((3-fluoro-5-methylbenzyl)amino)-4-oxo-4,6,7,8-tetrahydropyrrolo[1,2-a]pyrazine-6-carboxamide trifluoroacetate] | < 500 | 2500 to 10000
4 | Cc1cc(C)cc(CNc2ncc3n(c2=O)[C@H](C(=O)NC(C)c2cc4cnccc4[nH]2)CC3)c1 (stereo partly drawn) [Compound 43, (6S)-N-(1-(1H-pyrrolo[3,2-c]pyridin-2-yl)ethyl)-3-((3,5-dimethylbenzyl)amino)-4-oxo-4,6,7,8-tetrahydropyrrolo[1,2-a]pyrazine-6-carboxamide trifluoroacetate] | < 500 | > 25000
5 | Cc1cc2[nH]c(CNC(=O)[C@@H]3CCc4cnc(NCc5cccc(C(C)(C)O)c5)c(=O)n43)cc2cn1 [Compound 68, (S)-3-((3-(2-hydroxypropan-2-yl)benzyl)amino)-N-((6-methyl-1H-pyrrolo[3,2-c]pyridin-2-yl)methyl)-4-oxo-4,6,7,8-tetrahydropyrrolo[1,2-a]pyrazine-6-carboxamide] | < 500 | > 25000
6 | O=C(NCc1cc2cnccc2[nH]1)[C@@H]1CCc2c(Cl)nc(NCCc3cccnc3)c(=O)n21 [Compound 241] | < 500 | < 500
7 | Cc1nc(N)ccc1CNC(=O)[C@@H]1CCc2cnc(NCc3ccc4c(cnn4C)c3)c(=O)n21 [Compound 172] | < 500 | < 500
8 | COc1cc(C)cc(CNc2ncc3n(c2=O)[C@H](C(=O)NCc2ccc(N)nc2C)C[C@@H]3Cc2ccccc2)c1 [Compound 138, (6S,8S)-N-((6-amino-2-methylpyridin-3-yl)methyl)-8-benzyl-3-((3-methoxy-5-methylbenzyl)amino)-4-oxo-4,6,7,8-tetrahydropyrrolo[1,2-a]pyrazine-6-carboxamide] | < 500 | < 500
9 | Cc1cc2[nH]c(CNC(=O)[C@@H]3CCc4cnc(NCc5cc(F)ccc5C)c(=O)n43)cc2cn1 [Compound 64, (S)-3-((5-fluoro-2-methylbenzyl)amino)-N-((6-methyl-1H-pyrrolo[3,2-c]pyridin-2-yl)methyl)-4-oxo-4,6,7,8-tetrahydropyrrolo[1,2-a]pyrazine-6-carboxamide] | < 500 | 10000 to 25000
10 | O=C(NCc1cc2c(s1)CNC2)[C@@H]1CCc2c(Cl)nc(NCc3ccccc3)c(=O)n21 [Compound 35] | < 500 | 2500 to 10000
11 | Cc1cc(C)cc(CNc2nc(Cl)c3n(c2=O)[C@H](C(=O)NCc2cc4cnccc4[nH]2)C[C@@H]3C)c1 [Compound 132, (6S,8S)-N-((1H-pyrrolo[3,2-c]pyridin-2-yl)methyl)-1-chloro-3-((3,5-dimethylbenzyl)amino)-8-methyl-4-oxo-4,6,7,8-tetrahydropyrrolo[1,2-a]pyrazine-6-carboxamide] | < 500 | > 25000
12 | Cc1cc(F)cc(CNc2nc(C3CC3)c3n(c2=O)[C@H](C(=O)NCc2ccc(N)nc2C)CC3)c1 [Compound 210, (S)—N-((6-amino-2-methylpyridin-3-yl)methyl)-1-cyclopropyl-3-((3-fluoro-5-methylbenzyl)amino)-4-oxo-4,6,7,8-tetrahydropyrrolo[1,2-a]pyrazine-6-carboxamide trifluoroacetate] | < 500 | 500 to 2500
13 | CC[C@@H](Nc1ncc2n(c1=O)[C@H](C(=O)NCc1cc3c(s1)CNC3)CC2)c1ccc2ccccc2c1 [Compound 263, (S)-N-((5,6-dihydro-4H-thieno[2,3-c]pyrrol-2-yl)methyl)-3-(((R)-1-(naphthalen-2-yl)propyl)amino)-4-oxo-4,6,7,8-tetrahydropyrrolo[1,2-a]pyrazine-6-carboxamide trifluoroacetate] | < 500 | 500 to 2500

The remaining lines, values ahead:

Row | Ki (MASP-2 (CCP1-CCP2-SP)) [nM] | Ki (human α-thrombin) [nM] | Structure (SMILES)
14 | < 500 | > 25000 | O=C(NCc1cc2cnccc2[nH]1)[C@@H]1CCc2c(Cl)nc(NCc3ccc4c(c3)CCCC4)c(=O)n21 [Compound 162, (S)—N-((1H-pyrrolo[3,2-c]pyridin-2-yl)methyl)-1-chloro-4-oxo-3-(((5,6,7,8-tetrahydronaphthalen-2-yl)methyl)amino)-4,6,7,8-tetrahydropyrrolo[1,2-a]pyrazine-6-carboxamide]
15 | < 500 | 10000 to 25000 | Cc1cc(C)cc(CNc2ncc3n(c2=O)[C@H](C(=O)NCc2cc4c(s2)CN(C)C4)CC3)c1 [Compound 42, (S)-3-((3,5-dimethylbenzyl)amino)-N-((5-methyl-5,6-dihydro-4H-thieno[2,3-c]pyrrol-2-yl)methyl)-4-oxo-4,6,7,8-tetrahydropyrrolo[1,2-a]pyrazine-6-carboxamide trifluoroacetate]
16 | < 500 | > 25000 | Cc1cc(F)cc(CNc2nc(-c3cnn(C(F)F)c3)c3n(c2=O)[C@H](C(=O)NCc2cc4cnccc4[nH]2)CC3)c1 [Compound 215, (S)-N-((1H-pyrrolo[3,2-c]pyridin-2-yl)methyl)-1-(1-(difluoromethyl)-1H-pyrazol-4-yl)-3-((3-fluoro-5-methylbenzyl)amino)-4-oxo-4,6,7,8-tetrahydropyrrolo[1,2-a]pyrazine-6-carboxamide trifluoroacetate]
17 | < 500 | 2500 to 10000 | N#Cc1cccc(CNc2nc(Cl)c3n(c2=O)[C@H](C(=O)NCc2cc4cnccc4[nH]2)CC3)c1 [Compound 144, (S)-N-((1H-pyrrolo[3,2-c]pyridin-2-yl)methyl)-1-chloro-3-((3-cyanobenzyl)amino)-4-oxo-4,6,7,8-tetrahydropyrrolo[1,2-a]pyrazine-6-carboxamide]
18 | < 500 | < 500 | Cc1ccc(CNc2ncc3n(c2=O)[C@H](C(=O)NCc2ccc(N)nc2C)CC3)cc1C [Compound 38, (S)-N-((6-amino-2-methylpyridin-3-yl)methyl)-3-((3,4-dimethylbenzyl)amino)-4-oxo-4,6,7,8-tetrahydropyrrolo[1,2-a]pyrazine-6-carboxamide]
19 | < 500 | 2500 to 10000 | COc1cc(C)cc(CNc2ncc3n(c2=O)[C@H](C(=O)NCc2cc4cnc(C)cc4[nH]2)CC3)c1 [Compound 51, (S)-3-((3-methoxy-5-methylbenzyl)amino)-N-((6-methyl-1H-pyrrolo[3,2-c]pyridin-2-yl)methyl)-4-oxo-4,6,7,8-tetrahydropyrrolo[1,2-a]pyrazine-6-carboxamide]
20 | 500 to 2500 | 500 to 2500 | Cc1cc(F)cc(CNc2ncc3n(c2=O)[C@H](C(=O)NCc2ccc(N)c(F)c2)CC3)c1 [Compound 184, (S)-N-(4-amino-3-fluorobenzyl)-3-((3-fluoro-5-methylbenzyl)amino)-4-oxo-4,6,7,8-tetrahydropyrrolo[1,2-a]pyrazine-6-carboxamide]
